This note sets out measurements from PubChem BioAssay AID2060489 (Molecular Pharmacology Branch, DTP, NCI, 2025).

The experiment has as its system 922993-354-T-J3-PDC complex spheroids, viability. The experiment in a line: Anticancer human tumor 922993-354-T-J3-PDC patient-derived endometrial carcinoma cell line growth inhibition [GQUAD]. The conditions noted are these: for viability, T/C: stronger effect = lower value. The text has this: DNA G-quadruplex Stabilizer Agents in Combinations in Complex Spheroids
A high-throughput screen of multi-cell type tumor spheroids was designed to identify active combinations of DNA G-quadruplex stabilizer agents and targeted small molecules. Complex spheroids include a stromal component modeled by human endothelial cells (HUVEC) and fibroblasts modeled by human mesenchymal stem cells (MSCs). The concentration ranges selected for each drug and investigational agent were based upon clinically achievable concentrations if the clinical Cmax of the agent was known.
Compounds. The drugs and investigational agents: pidnarulex (CX-5461; NSC782164), APTO-253 (NSC789042), BRACO-19 (NSC847499), peposertib (NSC802822), ceralasertib (NSC780249), elimusertib (NSC800525), camonsertib (NSC841442), AZD-1390 (NSC803789), olaparib (NSC753686), talazoparib (NSC767125), ART-558 (NSC835418), sotorasib (NSC818433), MRTX-1133 (NSC836407), SN-38 (NSC673596), topotecan (NSC609699), etoposide (NSC141540), doxorubicin (NSC123127), gemcitabine (NSC613327), 5-fluorouracil (NSC19893), paclitaxel (NSC125973), vemurafenib (NSC761431), panobinostat (NSC761190), R-306465 (JNJ-16241199; NSC773264), adavosertib (NSC754352), TP-3654 (NSC805149), carboplatin (NSC241240), KSQ-4279 (NSC840948), and staurosporine (NSC755774) were obtained from the National Cancer Institute (NCI) Developmental Therapeutics Program Chemical Repository (34). The FDA-approved anticancer drug set is available from the NCI Developmental Therapeutics Program. […] The stock solutions were prepared in dimethyl sulfoxide (DMSO, Sigma-Aldrich, St. Louis, MO, cat. D2650) at 800-fold the tested concentration and stored at -70 degrees C prior to their use. All drugs and investigational agents were tested over a range starting from a high concentration at or near the clinical Cmax and decreasing in half-log increments. If the clinical Cmax for an agent had not been determined, the highest concentration tested was 10 microM.
2.3 Cell Culture. All cells were maintained in an incubator at 37 degrees C and 5% CO2 with 95% humidity. The PDC lines were cultured according to standard operating procedures established by the NCI PDMR. All PDCs were thawed and cultured in Matrigel-coated flasks prepared with a working solution of 1X Ham's F-12 nutrient mix, without supplementation (Invitrogen, cat. 11765054), 100 U/mL penicillin-streptomycin (Invitrogen, cat. 15140122), and 2.5% Matrigel (Corning Inc., cat. 354248) for the first three passages. The 857933-349-R-J2-PDC line was cultured in 6C/Colon 1B media, which includes advanced DMEM/F-12 (Thermo Fisher Scientific, cat. 12634028), 10 mM HEPES (Thermo Fisher Scientific, cat. 15630080), 1X GlutaMAX supplement (Thermo Fisher Scientific, cat. 35050061), 0.1 mg/mL primocin (InvivoGen, cat. ant-pm-2), 10% defined fetal bovine serum, heat inactivated (HyClone Laboratories Inc., cat. SH30070.03HI), 50% L-WRN conditioned media (ATCC, cat. CRL-3276), 1.25 mM N-Acetyl-L-cysteine (Sigma-Aldrich, cat. A9165), 10 mM nicotinamide (Sigma-Aldrich, cat. N0636), 1X B-27 supplement (Thermo Fisher Scientific, cat. 17504044), 1X N-2 supplement (Thermo Fisher Scientific, cat. 17502048), 10 microM Y-27632 dihydrochloride (Tocris Bioscience, cat. 1254), and 50 ng/mL human EGF recombinant protein (Thermo Fisher Scientific, cat. PHG0311). The 485176-168-R4-J1-PDC line was cultured in Panc media, which includes all 6C/Colon 1B media components plus 100 ng/mL human FGF-10 (Thermo Fisher Scientific, cat. 100-26), 500 nM SB-431542 (Selleckchem, cat. S1067), and gastrin (Tocris, cat. 3006).
[…]

Setting [1] is: compound alone, run of 03/26/2024.

The viability, T/C is the result in the treated group divided by that in the control group, in per cent. As usually defined, the IC50 is the point on the concentration scale where inhibition reaches its midpoint.

Where “and” joins values, the source holds several entries; their conditions need not be identical. Equal entries are not always repeated. Where only a bound is given, the exact number is not on record here.
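Note: spheroids exposed to compounds for seven days.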

Regarding `C#Cc1c(F)ccc2cc(O)cc(-c3ncc4c(N5CC6CCC(C5)N6)nc(OCC56CCCN5CC(F)C6)nc4c3F)c12` (centres undefined), the viability, T/C reads like this: (compound 0.0316 µM) 84.5% and 92.3% and 99.3%; (compound 0.1 µM) 82.8% and 84% and 92.6%; (compound 0.316 µM) 89.6% and 103% and 84.7%; (compound 1 µM) 92.7% and 82.5% and 106%; (compound 3.16 µM) 76.5% and 96.3% and 94.4%; (compound 10 µM) 96.1% and 82.3% and 91.5%. Besides, the IC50 (curve of compound) is over 10 µM.
Turning to `C=CC(=O)N1CCN(c2nc(=O)n(-c3c(C)ccnc3C(C)C)c3nc(-c4c(O)cccc4F)c(F)cc23)C(C)C1` (centres undefined), the viability, T/C is 101% and 110% and 99.2% (compound 0.0316 µM); 88.4% and 88.3% and 112% (compound 0.1 µM); 102% and 124% and 99.9% (compound 0.316 µM); 91.4% and 97.3% and 95.3% (compound 1 µM); 93.3% and 95.4% and 128% (compound 3.16 µM); 97.9% and 97.8% and 89.3% (compound 10 µM). Further, the IC50 (curve of compound) is over 10 µM.
With `C=CCn1c(=O)c2cnc(Nc3ccc(N4CCN(C)CC4)cc3)nc2n1-c1cccc(C(C)(C)O)n1`, the viability, T/C (compound 0.0316 µM) was 79.8% and 93.2% and 78.9%; the viability, T/C (compound 0.1 µM) is 83.2% and 85.1% and 115%; the viability, T/C (compound 0.316 µM) is 107% and 109% and 113%; the viability, T/C (compound 1 µM) was 97.1% and 94.7% and 90.2%; the viability, T/C (compound 3.16 µM) was 66.1% and 73.2% and 82.1%; the viability, T/C (compound 10 µM) is 14.4% and 13.4% and 27.5%. The IC50 (curve of compound) is 4.52 µM and 4.95 µM and 6.19 µM.
Consider `CC(=O)O[C@H]1C(=O)[C@@]2(C)[C@H]([C@H](OC(=O)c3ccccc3)[C@]3(O)C[C@H](OC(=O)[C@H](O)[C@@H](NC(=O)c4ccccc4)c4ccccc4)C(C)=C1C3(C)C)[C@]1(OC(C)=O)CO[C@@H]1C[C@@H]2O`, for which the viability, T/C is, setting by setting: (compound 0.0316 µM) 109% and 89.5% and 121%; (compound 0.1 µM) 95% and 93% and 85.9%; (compound 0.316 µM) 84.9% and 103% and 93.4%; (compound 1 µM) 111% and 108% and 102%; (compound 3.16 µM) 75.6% and 78.7% and 84.9%; (compound 10 µM) 36.8% and 47.7% and 50%. Besides, the IC50 (curve of compound) is 6.76 µM and 9.18 µM and > 10 µM.
Take `CC(C)(O)C1CCC(Nc2ccc3ncc(-c4cccc(C(F)(F)F)c4)n3n2)CC1` (centres undefined): the viability, T/C was 106% and 88.2% and 93.2% (compound 0.0316 µM); 81% and 82.6% and 81.6% (compound 0.1 µM); 89.6% and 84.6% and 88.7% (compound 0.316 µM); 82.9% and 101% and 90.8% (compound 1 µM); 78.8% and 68.7% and 81.9% (compound 3.16 µM); 79.6% and 68% and 98.6% (compound 10 µM). For the same compound, the IC50 (curve of compound) is over 10 µM.
Regarding `CCCS(=O)(=O)Nc1ccc(F)c(C(=O)c2c[nH]c3ncc(-c4ccc(Cl)cc4)cc23)c1F`, the viability, T/C (compound 0.0316 µM) is 101% and 91.3% and 97.1%; the viability, T/C (compound 0.1 µM) is 81% and 90.5% and 83.1%; the viability, T/C (compound 0.316 µM) is 99.1% and 89.8% and 101%; the viability, T/C (compound 1 µM) is 87.5% and 81% and 76%; the viability, T/C (compound 3.16 µM) was 78.5% and 68.7% and 87.7%; the viability, T/C (compound 10 µM) is 37.7% and 68.9% and 71%. Moreover, under “curve of compound”, the IC50 was 7.09 µM and > 10 µM.
Turning to `CN(C)c1ccc(Nc2c3ccc(NC(=O)CCN4CCCC4)cc3nc3cc(NC(=O)CCN4CCCC4)ccc23)cc1`, where the note is “compound 0.316 µM”, the viability, T/C is 99.4% [middle of 12 runs]. Under setting [1], the IC50 was over 10 µM.
Consider `COc1cc(C2c3cc4c(cc3C(OC3OC5COC(C)OC5C(O)C3O)C3COC(=O)C23)OCO4)cc(OC)c1O` (centres undefined), for which the viability, T/C was 88.4% and 94.8% and 88.6% (compound 0.0316 µM); 89% and 80.4% and 92% (compound 0.1 µM); 76.1% and 86.3% and 92.8% (compound 0.316 µM); 89.5% and 99.4% and 80.7% (compound 1 µM); 74.5% and 95.4% and 76.1% (compound 3.16 µM); 56.4% and 62.6% and 37% (compound 10 µM). Moreover, the IC50 (curve of compound) is > 10 µM and 6.75 µM.
Consider `COc1cccc2c1C(=O)c1c(O)c3c(c(O)c1C2=O)CC(O)(C(=O)CO)CC3OC1CC(N)C(O)C(C)O1` (centres undefined), for which the viability, T/C (compound 0.0316 µM) was 101% and 78% and 112%; the viability, T/C (compound 0.1 µM) is 85.8% and 98% and 78.3%; the viability, T/C (compound 0.316 µM) is 83.7% and 94.3% and 93%; the viability, T/C (compound 1 µM) is 108% and 71.4% and 89.4%; the viability, T/C (compound 3.16 µM) was 68.2% and 64.5% and 86%; the viability, T/C (compound 10 µM) is 57.2% and 28.9% and 43.5%. Also, the IC50 (curve of compound) was > 10 µM and 4.82 µM and 8.46 µM.
For `COc1ncnc(C2CC2)c1-c1ncc2cnn(Cc3ccc(-c4nc(C(F)(F)F)cn4C(C)C)cc3)c2n1`, the viability, T/C reads like this: (compound 0.0316 µM) 91.6% and 114% and 86.8%; (compound 0.1 µM) 87.8% and 92.6% and 89.9%; (compound 0.316 µM) 101% and 104% and 102%; (compound 1 µM) 87.8% and 99.7% and 99.6%; (compound 3.16 µM) 110% and 85.1% and 69.7%; (compound 10 µM) 95.9% and 87.4% and 81.4%. The IC50 (curve of compound) was over 10 µM.
On to `Cc1[nH]c2ccc(F)cc2c1-c1nc2c3cccnc3c3ncccc3c2[nH]1`, for which the viability, T/C (compound 10 µM) is 106% [middle of 12 runs]. For the same compound, the IC50 is over 10 µM (compound alone, run of 03/18/2024) and over 10 µM under setting [1].
For the compound `Nc1ccn(C2OC(CO)C(O)C2(F)F)c(=O)n1` (centres undefined), the viability, T/C (compound 0.0316 µM) is 22.6% and 12.1% and 26.3%; the viability, T/C (compound 0.1 µM) was 22% and 11.3% and 23.6%; the viability, T/C (compound 0.316 µM) is 28% and 12.5% and 23.7%; the viability, T/C (compound 1 µM) was 24.6% and 13.1% and 30.6%; the viability, T/C (compound 3.16 µM) is 23.4% and 12.9% and 18.8%; the viability, T/C (compound 10 µM) was 20.9% and 11.3% and 20.8%. Besides, the IC50 (curve of compound) was under 0.0316 µM.
On to `O=C(NO)c1cnc(N2CCN(S(=O)(=O)c3ccc4ccccc4c3)CC2)nc1`, for which the viability, T/C runs as follows: (compound 0.0316 µM) 98.1% and 88.5% and 95.5%; (compound 0.1 µM) 71.3% and 68.2% and 82.4%; (compound 0.316 µM) 56% and 62% and 55.4%; (compound 1 µM) 36.7% and 32.2% and 32%; (compound 3.16 µM) 3.07% and 3.39% and 4.12%; (compound 10 µM) 0.53% (2×) and 0.58%. In addition, the IC50 (curve of compound) was 0.381 µM and 0.447 µM and 0.422 µM.
As for `O=c1[nH]cc(F)c(=O)[nH]1`, the viability, T/C runs as follows: (compound 0.0316 µM) 104% and 107% and 113%; (compound 0.1 µM) 98.3% and 97.9% and 83.3%; (compound 0.316 µM) 99.5% and 94.9% and 75%; (compound 1 µM) 76% and 72.9% and 90.1%; (compound 3.16 µM) 81.2% and 74.1% and 57%; (compound 10 µM) 47.9% and 65.3% and 16.6%. Further, the IC50 (curve of compound) was > 10 µM and 3.85 µM.
